Assay results published in patent US10807958B2, “1,4-bis(3-aminopropyl)piperazine derivative and its use” (INSERM (Institut National de la Sante et de la Recherche …, priority 2015, dated 2020).

Test system: Thy-Tau22 mice
Test: Morris water maze spatial memory, Thy-Tau22 mice
Assay type: in vivo, mouse
Conditions: 4 months
Description: Wild-type C57BL/6J animals of 3 months were purchased at Charles Rivers Laboratories (France) and were allow to acclimate in the animal facility for at least one week before any treatment. Thy-Tau22 transgenic colonies (C57BL/6J genetic background) were obtained by crossing heterozygous Thy-Tau22 males with C57BL/6 WT females. […] In this model, a progressive development of NFT is observed in the hippocampus and amygdala, which parallels behavioral impairments (Schindowski et al., 2006). Furthermorever, in the hippocampus, hyper- and abnormally phosphorylated Tau species accumulate within the somato-dendritic area (Schindowski et al., 2006).
For animal treatment, animals were randomly distributed and the compound of Formula I was given in the drinking water at final concentration of 0.5 or 1 mg/kg. Drinking bottles were changed once per week, volume consumption was measured along the treatment period. Food consumption and body weight were assessed. In wild-type animals the pilot study of drug treatment was performed for one month to establish the innocuousness of the treatment with the compound of Formula I. This was based on the physiological, social and behavioural assessments. Thy-Tau22 males were treated for 4 months starting at 3 month old. All protocols were approved by the local ethics committee (n^∘342012, CEEA).
Before any behavioral test, exploratory and locomotion of treated and untreated animal were evaluated in a Open field (OF) 25 cm×25 cm arena. Four acquisitions in joined arena were performed simultaneously. Each mouse was placed in the arena and allowed to explore for at least 5 min. Parameters including distance, speed, velocity were acquired by video recording using the EthoVision video tracking equipment and software (Noldus, Information Technology, Paris, France) in a dedicated room. The anxiety, which could interfere with memory test, was evaluated by the elevated plus maze (EPM). […] Locomotion, distance, speed and velocity were measured as well as the number of arm entries, time spent in the open versus closed arms, percentage of open arm entries and time per minute spent in the open arms on a total of 5 min test.
Spatial learning and memory abilities were assessed in a standard hidden-platform acquisition and retention version of the Morris water maze task (Van der Jeugd et al., 2013). […] The time required to find the hidden rescue platform (escape latency) was used as a spatial learning index and was recorded using the Ethovision XT video tracking system (Noldus France). Swimming speed and total distance were also measured. 72 h after the acquisition phase, the hidden platform was removed and spatial memory was evaluated in a 60 s probe trial. […]

CC(C)CN(CCCN1CCN(CCCNc2c3c(nc4ccccc24)CCCC3)CC1)CC(C)C [compound of Formula I, N-[3-(4-{3-[Bis(2-methylpropyl)amino]propyl}piperazin-1-yl)propyl]-1,2,3,4-tetrahydroacridin-9-amine]
probe test, spatial memory in Thy-Tau22 mice (0.5 mg/kg, probe test 72 hours after last learning day): preserved | development of spatial memory impairments (ANOVA statistical analysis) (Thy-Tau22 mice, 0.5 mg/kg): protected or preserved | time spent in the target quadrant versus the others (Thy-Tau22 treated, 0.5 mg/kg, untreated spent equal % of time, FIG. 4B): more time | learning phase (distance to reach the platform) between the animal groups (WT and Thy-Tau22, treated or not with 0.5 mg/kg, FIG. 4A): not significantly different
